Assay results as given in ChEMBL document CHEMBL1128847, “Inhibition of matrix metalloproteinases by N-carboxyalkyl peptides containing extended alkyl residues At P1'” (Bioorg Med Chem Lett, 1995).

Key:
Stromelysin-1 = Stromelysin-1 (Homo sapiens, UniProt P08254)
Description: Inhibition of human fibroblast stromelysin (MMP-3)

Interstitial collagenase = target: T1, Interstitial collagenase (Homo sapiens, UniProt P03956); experiment: Inhibition of human fibroblast collagenase (MMP-1)
T1 sequence (P03956 whole entry): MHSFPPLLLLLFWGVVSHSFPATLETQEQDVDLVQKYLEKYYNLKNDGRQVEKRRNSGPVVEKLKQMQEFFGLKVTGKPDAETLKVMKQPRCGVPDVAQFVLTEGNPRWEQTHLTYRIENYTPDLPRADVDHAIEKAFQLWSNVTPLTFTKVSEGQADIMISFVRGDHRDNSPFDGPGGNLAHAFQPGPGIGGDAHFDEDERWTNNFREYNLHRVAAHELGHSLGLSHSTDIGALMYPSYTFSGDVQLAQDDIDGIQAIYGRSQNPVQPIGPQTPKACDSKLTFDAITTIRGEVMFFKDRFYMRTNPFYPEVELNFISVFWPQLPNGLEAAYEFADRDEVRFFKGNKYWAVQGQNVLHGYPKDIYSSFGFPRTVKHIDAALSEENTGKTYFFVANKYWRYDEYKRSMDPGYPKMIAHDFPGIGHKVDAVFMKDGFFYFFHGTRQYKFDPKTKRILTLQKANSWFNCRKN

[1] = target: 72 kDa type IV collagenase (Homo sapiens, UniProt P08253); experiment: Inhibition of human gelatinase A (MMP-2)
72 kDa type IV collagenase, sequence (P08253 whole entry): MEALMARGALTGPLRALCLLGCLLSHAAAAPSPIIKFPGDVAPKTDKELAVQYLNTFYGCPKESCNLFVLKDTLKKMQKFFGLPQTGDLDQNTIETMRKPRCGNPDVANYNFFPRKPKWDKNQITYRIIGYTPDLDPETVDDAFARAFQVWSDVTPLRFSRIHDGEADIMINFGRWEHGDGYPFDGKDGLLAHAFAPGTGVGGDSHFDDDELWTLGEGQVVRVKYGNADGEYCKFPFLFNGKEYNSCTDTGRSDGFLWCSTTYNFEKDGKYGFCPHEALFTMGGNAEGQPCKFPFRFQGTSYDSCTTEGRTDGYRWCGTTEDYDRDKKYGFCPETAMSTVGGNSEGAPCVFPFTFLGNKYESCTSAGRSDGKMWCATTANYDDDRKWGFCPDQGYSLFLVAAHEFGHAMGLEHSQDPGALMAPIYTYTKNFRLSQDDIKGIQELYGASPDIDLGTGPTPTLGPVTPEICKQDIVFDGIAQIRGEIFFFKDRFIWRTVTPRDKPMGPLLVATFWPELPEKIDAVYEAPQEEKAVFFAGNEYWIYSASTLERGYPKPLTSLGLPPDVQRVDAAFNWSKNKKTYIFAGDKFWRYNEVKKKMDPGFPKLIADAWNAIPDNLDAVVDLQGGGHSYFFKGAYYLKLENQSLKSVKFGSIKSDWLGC

Stromelysin-1, sequence (P08254 whole entry): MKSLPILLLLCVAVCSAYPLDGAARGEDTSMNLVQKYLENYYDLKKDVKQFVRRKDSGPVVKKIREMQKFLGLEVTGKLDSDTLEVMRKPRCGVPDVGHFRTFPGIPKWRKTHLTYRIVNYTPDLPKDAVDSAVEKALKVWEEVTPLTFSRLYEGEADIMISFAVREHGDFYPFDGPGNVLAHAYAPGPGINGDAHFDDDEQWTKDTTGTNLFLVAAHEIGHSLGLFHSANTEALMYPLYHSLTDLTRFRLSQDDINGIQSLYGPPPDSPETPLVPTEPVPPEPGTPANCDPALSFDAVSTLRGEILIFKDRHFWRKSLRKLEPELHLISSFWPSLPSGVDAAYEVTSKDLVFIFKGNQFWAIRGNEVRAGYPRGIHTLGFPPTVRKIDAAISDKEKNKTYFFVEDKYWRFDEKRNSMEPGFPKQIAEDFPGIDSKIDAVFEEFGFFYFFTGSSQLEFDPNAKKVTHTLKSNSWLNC

SMILES | Ki (Stromelysin-1) [nM] | Ki (Interstitial collagenase) [nM] | Ki [1] [nM]
CC(C)C[C@H](NC(=O)[C@H](CCCCCCCCCN)N[C@H](C)C(=O)O)C(=O)Nc1ccccc1 | 240 | > 10000 | 500
CCCCCCCC[C@H](N[C@H](C)C(=O)O)C(=O)N[C@@H](CC(C)C)C(=O)Nc1ccccc1 | 570 | > 10000 | 340
CCCCCCCCCC[C@H](N[C@H](C)C(=O)O)C(=O)N[C@@H](CC(C)C)C(=O)Nc1ccccc1 | 850 | > 10000 | 560

Now from value to compound:

Ki (Stromelysin-1) [nM] | Ki (Interstitial collagenase) [nM] | Ki [1] [nM] | SMILES
370 | > 10000 | 110 | C[C@@H](N[C@@H](CCCCCCCCCN)C(=O)N[C@@H](CCCN=C(N)N)C(=O)Nc1ccccc1)C(=O)O
1600 | > 10000 | 120 | CCCCCCCC[C@H](N[C@H](C)C(=O)O)C(=O)N[C@@H](CCCN=C(N)N)C(=O)Nc1ccccc1
– | 760 | 200 | CC(C)C[C@H](NC(=O)[C@H](CCc1ccccc1)N[C@H](C)C(=O)O)C(=O)Nc1ccccc1 [L-696418]
